The values that follow come from publication PMC12444839, “Development of Carborane‐Based Halogenated Naphthyridinone‐Analogues as Cannabinoid Receptor Type 2 (CB2R) Ligands” (Chemmedchem, 2025).

A short description of series [1]: stability in DMSO/H2O (1:1, v/v) by HPLC-UV-MS. It counts as physicochemical. The note with it: RP-HPLC. On the procedure:
The stability was determined analogously to the purity determination and as described in a previous publication.^[ [79] ^] Instead of CH3CN or MeOH, a solvent mixture of DMSO/H2O (1:1, v/v) was used for all samples, as well as the blank measurements. Measurements were conducted directly after solvent addition and up to three days (Figure S82–S89, Supporting Information).
5 Determi naƟon of the Stability of Compounds 2o,m,p, 3o,m,p, 4, and 5
The stability measurements have been performed with an HPLC-UV-MS on an RP column. Blank samples of pure DMSO/H20 (1:1, v/v) have been measured prior to the target compounds. The target compounds have been dissolved in DMSO/H2O (1:1, v/v) for stability determinaƟon. The measurements have been started directly aŌer the addiƟon of the water. The double peaks or shoulders of the signals of the compound are related to the column that has been used. Broad signals have been obser ved in case of the nido-carborane derivaƟves .
Figure S82. RP-HPLC chromatograms of blank (DMSO/H2O, black and dark blue) and compound 2o, retention time: 11.4 min, purity after 2.5 d: […]

For series [2], the target named is T1, human CB1R (Homo sapiens, UniProt P21554).
T1 construct: expressed in transfected cells; host or cells: Chinese hamster ovary (CHO) cells, stably transfected; crude membrane homogenates
Briefly: in vitro binding affinity assay, membrane homogenates of CHO cells stably transfected with human CB1R, radioligand [3H]SR141716A. The note with it: CHO membranes, mean of two values (c: mean of three values), read-out: K iCB1R mean. From the text: (§1) The eight target compounds 2 o , m , p , 3 o , m , p , 4, and 5 have been investigated in in vitro binding affinity assays using crude membrane preparations obtained from Chinese hamster ovary cells stably transfected with either human CB1R or CB2R and the target‐specific radioligands [ ^ 3 H]SR141716A and [ ^ 3 H]WIN55212‐2, respectively (structures shown in Figure S90, Supporting Information).
(§2) The affinity assays have been performed with membrane homogenates from Chinese hamster ovary cells (CHO) stably transfected either with human CB2R or CB1R. Already published protocols have been used.^[ [99] ^]

The target in series [3] is T2, human CB2R (Homo sapiens, UniProt P34972).
T2 construct: expressed in transfected cells; host or cells: Chinese hamster ovary (CHO) cells, stably transfected; crude membrane homogenates
Briefly: in vitro binding affinity assay, membrane homogenates of CHO cells stably transfected with human CB2R, radioligand [3H]WIN55212-2. To be noted: for Selectivity index (SI): SI = K iCB1R/K iCB2R; for Ki / K iCB2R mean: human CB2R, CHO membranes, [3H]WIN55212-2, mean of two values; for Ki: read-out: K iCB2R mean.
Text: as §1, §2

The subject of series [4] is CB2R. Briefly: CB2R binding affinity, literature value of Lucchesi et al., other testing conditions. To be noted: SI = K iCB1R/K iCB2R, from literature values. From the text:
Table 1 Binding affinities of target compounds 2 o , m , p , 3 o , m , p , 4, and 5. | column: Selectivity index (SI) ^e)

In series [5] the target is CB1R. More on the design: method as in PMID 25272206. To be noted: mean of at least three separate experiments in duplicate, other testing conditions; read-out: K iCB1R mean; cited from earlier work.
The target of series [6] is CB2R. On the set-up: method as in PMID 25272206. To be noted: mean of at least three separate experiments in duplicate, other testing conditions; read-out: K iCB2R mean; cited from earlier work.
Series [7] deals with CB2R. More on the design: method as in PMID 36944112. To be noted: previously reported; L7 (ortho): one value; read-out: K iCB2R mean; cited from earlier work.

Where two headings read alike, the source gives them in different places. Where only a bound is given, the exact number is not on record here.

T2 sequence (P34972 whole entry): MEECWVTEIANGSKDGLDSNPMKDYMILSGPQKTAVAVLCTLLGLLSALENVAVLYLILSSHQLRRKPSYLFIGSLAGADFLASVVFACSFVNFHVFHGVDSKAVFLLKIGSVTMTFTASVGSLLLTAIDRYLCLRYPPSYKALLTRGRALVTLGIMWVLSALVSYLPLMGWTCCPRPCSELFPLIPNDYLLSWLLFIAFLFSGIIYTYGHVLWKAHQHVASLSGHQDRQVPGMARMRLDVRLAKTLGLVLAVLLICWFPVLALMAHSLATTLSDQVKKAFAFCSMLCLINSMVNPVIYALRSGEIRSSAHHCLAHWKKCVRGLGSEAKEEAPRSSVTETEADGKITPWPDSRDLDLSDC
T1 sequence (P21554 whole entry): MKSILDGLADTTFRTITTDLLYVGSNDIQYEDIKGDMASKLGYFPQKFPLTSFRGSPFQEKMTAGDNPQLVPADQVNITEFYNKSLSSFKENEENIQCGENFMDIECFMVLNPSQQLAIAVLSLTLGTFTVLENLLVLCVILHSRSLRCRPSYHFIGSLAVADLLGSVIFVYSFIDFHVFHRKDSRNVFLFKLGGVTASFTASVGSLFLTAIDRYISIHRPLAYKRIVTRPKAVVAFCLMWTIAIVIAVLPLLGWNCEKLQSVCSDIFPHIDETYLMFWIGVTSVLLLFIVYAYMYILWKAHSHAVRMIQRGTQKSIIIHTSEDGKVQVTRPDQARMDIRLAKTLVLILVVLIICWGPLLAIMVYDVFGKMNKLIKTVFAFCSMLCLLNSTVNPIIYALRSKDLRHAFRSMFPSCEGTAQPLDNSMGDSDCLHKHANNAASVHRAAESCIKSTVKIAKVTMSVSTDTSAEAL

For the compound “1‐(4‐Fluorobenzyl)‐6‐iodo‐2‐oxo‐N‐(1,12‐closo‐dicarba‐dodecaborane)‐1,2‐dihydro‐1,8‐naphthyridine‐3‐carboxamide [3 p]”, in series [1], the “purity after 1 d (stability)” value was above 98%. Also, in series [2], the Ki amounted to 5520 nM. In series [3], the “Selectivity index (SI)” value worked out at 730 and the Ki amounted to 7.55 nM.

For “1‐(4‐Fluorobenzyl)‐6‐iodo‐2‐oxo‐N‐(1,2‐closo‐dicarba‐dodecaborane)‐1,2‐dihydro‐1,8‐naphthyridine‐3‐carboxamide [3 o]”, the results for the “purity after 6 h (stability)” value in series [1] and in series [1] (listed as 3o) were 93% and ~ 93%, respectively. Moreover, the Ki in series [2] stood at 3940 nM; in series [3], 15.2 nM. Besides, the “Selectivity index (SI)” value in series [3] is on record as 260.

As to “6‐Bromo‐1‐(4‐fluorobenzyl)‐2‐oxo‐N‐(1,12‐closo‐dicarba‐dodecaborane)‐1,2‐dihydro‐1,8‐naphthyridine‐3‐carboxamide [2 p]”, in series [2], the Ki worked out at 7220 nM. For the same compound, in series [3], the “Selectivity index (SI)” value came to 937 and the Ki is 7.71 nM.

`C[C@H]1CC[C@@H](NC(=O)c2cc3cc(Br)cnc3n(Cc3ccc(F)cc3)c2=O)CC1` [L1 (cis)]: the “Selectivity index (SI)” value in series [4] was 1010. Further, the Ki in series [5] is 121 ± 5.32 nM; in series [6], 0.12 ± 0.002 nM.

In the case of “(Z)‐N‐[3‐(4‐fluoro[^18F]butyl‐d 8)‐4,5‐dimethylthiazole‐2(3 H)‐ylidene]‐(1,7‐dicarba‐closo‐dodecaboranyl)‐carboxamide [[18F]LUZ5-d8]”, the Ki in series [7] was 0.8 nM.

In the case of “6‐Bromo‐1‐(4‐fluorobenzyl)‐2‐oxo‐N‐(1,7‐closo‐dicarba‐dodecaborane)‐1,2‐dihydro‐1,8‐naphthyridine‐3‐carboxamide [2 m]”, the “purity after 1 d (stability)” value in series [1] is on record as ~ 98%. The Ki in series [2] turned out to be 1680 nM. Further, in series [3], the “Selectivity index (SI)” value is given as 273 and the Ki was determined as 6.16 nM.

As to “Sodium 6‐Bromo‐1‐(4‐fluorobenzyl)‐2‐oxo‐N‐(7,8‐nido‐dicarba‐dodecahydroundecaborate(–1))‐1,2‐dihydro‐1,8‐naphthyridine‐3‐carboxamide [Compound 4]”, in series [1] (after 3 d), the “purity after 3 d (stability)” value is recorded as ~ 98%. Besides, the Ki in series [2] worked out at 53200 nM. Moreover, in series [3], the “Selectivity index (SI)” value was 62, the “K iCB2R mean” value was “very low affinity” and the Ki worked out at 857 nM.

Turning to “1‐(4‐Fluorobenzyl)‐6‐iodo‐2‐oxo‐N‐(1,7‐closo‐dicarba‐dodecaborane)‐1,2‐dihydro‐1,8‐naphthyridine‐3‐carboxamide [3 m]”, the “purity after 1 d (stability)” value in series [1] is recorded as ~ 98%. For the same compound, in series [2], the Ki was 6090 nM. Further, in series [3], the “Selectivity index (SI)” value is 877 and the Ki was 6.95 nM.

“Sodium 1‐(4‐Fluorobenzyl)‐6‐iodo‐2‐oxo‐N‐(7,8‐nido‐dicarba‐dodecahydroundecaborate(–1))‐1,2‐dihydro‐1,8‐naphthyridine‐3‐carboxamide [Compound 5]”: the “purity after 1 d (stability)” value in series [1] is above 97%. In addition, the Ki in series [2] came out at 90800 nM. Further, in series [3], the “Selectivity index (SI)” value worked out at 247, the “K iCB2R mean” value is listed as “very low affinity” and the Ki came to 368 nM.

As to “6‐Bromo‐1‐(4‐fluorobenzyl)‐2‐oxo‐N‐(1,2‐closo‐dicarba‐dodecaborane)‐1,2‐dihydro‐1,8‐naphthyridine‐3‐carboxamide [2 o]”, the “purity after 2.5 d (stability)” value in series [1] (after 2.5 d) is on record as above 98%. Moreover, the Ki in series [2] stood at 97800 nM. Moreover, in series [3], the “Selectivity index (SI)” value stood at 3378 and the Ki stood at 29 nM.
